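Test compounds were applied to cells in 96-well plates for 48 hours at 5 doses. GI50 = concentration required for 50% inhibition of growth.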 Calls of active or inactive are those of the source. Cut-off read from the data, not from the text of the source: active = GI50 up to about 1.1 µM and inactive = higher. Non-standard residues stand in square brackets, D forms with d. Residues, ends and D or L forms follow the SMILES beside them. *: point of attachment. NMeF = CN[CH](Cc1ccccc1)C(=O)O; NMeV = CN[CH](C(=O)O)C(C)C; Boc = CC(C)(C)OC(=O)*
Experiments:
Experiment in all cases: DTP human tumour cell line panel, 48 h
OVCAR-4 = system: OVCAR-4
UACC-257 = system: UACC-257
M19-MEL = system: M19-MEL
ACHN = system: ACHN
K562 = system: K562
HCC 2998 = system: HCC 2998
SF-295 = system: SF-295
HCT-15 = system: HCT-15
OVCAR-3 = system: OVCAR-3
TK-10 = system: TK-10
CAKI-1 = system: CAKI-1
NCI-H23 = system: NCI-H23
COLO 205 = system: COLO 205
SK-OV-3 = system: SK-OV-3
SNB-19 = system: SNB-19
SNB-78 = system: SNB-78
A498 = system: A498
NCI/ADR-RES = system: NCI/ADR-RES
MDA-N = system: MDA-N
MDA-MB-435 = system: MDA-MB-435

| SMILES | GI50 (OVCAR-4) | GI50 (UACC-257) | GI50 (M19-MEL) | GI50 (ACHN) | GI50 (K562) | GI50 (HCC 2998) | GI50 (SF-295) | GI50 (HCT-15) [µM] | GI50 (OVCAR-3) | GI50 (TK-10) | GI50 (CAKI-1) | GI50 (NCI-H23) | GI50 (COLO 205) | GI50 (SK-OV-3) | GI50 (SNB-19) | GI50 (SNB-78) | GI50 (A498) | GI50 (NCI/ADR-RES) | GI50 (MDA-N) | GI50 (MDA-MB-435) |
| --- | --- | --- | --- | --- | --- | --- | --- | --- | --- | --- | --- | --- | --- | --- | --- | --- | --- | --- | --- | --- |
| COc1ccc(-c2cc(=O)c3cc(O)ccc3o2)c(OC)c1OC | 27.2 µM (inactive) | 32.2 µM (inactive) | 45.3 µM (inactive) | 19.5 µM (inactive) | 24.8 µM (inactive) | 35.6 µM (inactive) | 24.7 µM (inactive) | 31.8 | 18.4 µM (inactive) | 39.4 µM (inactive) | 34.5 µM (inactive) | 36.8 µM (inactive) | 75.2 µM (inactive) | 35.3 µM (inactive) | 47.4 µM (inactive) |  |  |  |  |  |
| CCC1C(C)c2c([nH]c3ccccc23)C2C(=O)N(c3ccccc3)C(=O)C21 (centres undefined) | 13.4 µM (inactive) |  | 15.8 µM (inactive) | 18.2 µM (inactive) | 12.6 µM (inactive) | 15.5 µM (inactive) | 15.1 µM (inactive) | 13.6 | 13.3 µM (inactive) | 31.3 µM (inactive) |  | 18.6 µM (inactive) | 16.1 µM (inactive) | 19.4 µM (inactive) |  | 19.2 µM (inactive) |  |  |  |  |
| CC(C)C1CC[C@@H](C)C[C@@]1(O)CC(N)=O (some centres undefined) | > 100 µM (inactive) | > 100 µM (inactive) | > 100 µM (inactive) | > 100 µM (inactive) | > 100 µM (inactive) | > 100 µM (inactive) | > 100 µM (inactive) | > 100 | > 100 µM (inactive) | > 100 µM (inactive) | > 100 µM (inactive) | > 100 µM (inactive) | > 100 µM (inactive) | > 100 µM (inactive) | > 100 µM (inactive) | > 100 µM (inactive) |  |  |  |  |
| CC(C)N1CN(C(C(=O)N[C@@H]2C(=O)N3C2SC(C)(C)C3C(=O)O)c2ccc(O)cc2)CSC1=S (some centres undefined) | > 100 µM (inactive) | > 100 µM (inactive) | > 100 µM (inactive) | > 100 µM (inactive) | 31.8 µM (inactive) |  | > 100 µM (inactive) | 43 | 41.1 µM (inactive) | > 100 µM (inactive) | > 100 µM (inactive) | > 100 µM (inactive) | 33.8 µM (inactive) | > 100 µM (inactive) | > 100 µM (inactive) | > 100 µM (inactive) | > 100 µM (inactive) |  |  |  |
| c1cc2ccc1C1NCCCN1CCN1CCCNC1c1ccc(cc1)C1NCCCN1CCN1CCCNC21 (centres undefined) | > 100 µM (inactive) | > 100 µM (inactive) | 95.7 µM (inactive) | > 100 µM (inactive) | 37 µM (inactive) |  | > 100 µM (inactive) | 61.8 | 50.7 µM (inactive) | > 100 µM (inactive) | > 100 µM (inactive) | > 100 µM (inactive) | 54.3 µM (inactive) | > 100 µM (inactive) | > 100 µM (inactive) |  | > 100 µM (inactive) |  |  |  |
| CC(=O)C1(O)CC2(c3ccccc3)C(=O)C1(c1ccccc1)C(c1ccccc1)=C2c1ccccc1 (centres undefined) | 13.5 µM (inactive) | 35.6 µM (inactive) | > 100 µM (inactive) |  | 26.1 µM (inactive) |  | 33.4 µM (inactive) | > 100 | > 100 µM (inactive) | > 100 µM (inactive) | > 100 µM (inactive) | 36.6 µM (inactive) | > 100 µM (inactive) | > 100 µM (inactive) | > 100 µM (inactive) | > 100 µM (inactive) | > 100 µM (inactive) |  |  |  |
| O=S(=O)(CC1=NC2C=CC=CC2N=C1)NCc1ccccc1 (centres undefined) | 55.2 µM (inactive) |  | > 100 µM (inactive) | > 100 µM (inactive) | > 100 µM (inactive) | 0.0156 µM (active) | > 100 µM (inactive) | 81.7 | 83.2 µM (inactive) | > 100 µM (inactive) | > 100 µM (inactive) | > 100 µM (inactive) | > 100 µM (inactive) | > 100 µM (inactive) | > 100 µM (inactive) |  | > 100 µM (inactive) |  |  |  |
| O=[N+]([O-])C(=C1NCCN1)C(Cl)=C(Cl)Cl | > 100 µM (inactive) | > 100 µM (inactive) |  | > 100 µM (inactive) | > 100 µM (inactive) | > 100 µM (inactive) | > 100 µM (inactive) | > 100 | > 100 µM (inactive) | > 100 µM (inactive) | > 100 µM (inactive) | > 100 µM (inactive) | > 100 µM (inactive) | > 100 µM (inactive) | > 100 µM (inactive) |  | > 100 µM (inactive) | > 100 µM (inactive) | > 100 µM (inactive) | > 100 µM (inactive) |
| COC(CC1(CCNc2ccccc2)C(=O)N(COCC[Si](C)(C)C)c2ccccc21)OC (centres undefined) | 13.6 µM (inactive) | 11.7 µM (inactive) |  | 17.9 µM (inactive) | 8.41 µM (inactive) | 2.11 µM (inactive) | 16.6 µM (inactive) | 16 | 15.6 µM (inactive) | 14.8 µM (inactive) | 26.4 µM (inactive) | 16.5 µM (inactive) | 2.69 µM (inactive) | 15.2 µM (inactive) | 15.5 µM (inactive) |  | 21.1 µM (inactive) | 17.1 µM (inactive) | 24 µM (inactive) | 13.3 µM (inactive) |
| N#Cc1ccc(/N=N/N2CCCC2)cc1 | 98.9 µM (inactive) | > 100 µM (inactive) |  | > 100 µM (inactive) | 91 µM (inactive) | > 100 µM (inactive) | > 100 µM (inactive) | > 100 | > 100 µM (inactive) | 95.9 µM (inactive) | > 100 µM (inactive) | 95.1 µM (inactive) | > 100 µM (inactive) | > 100 µM (inactive) | > 100 µM (inactive) |  | 96.8 µM (inactive) | > 100 µM (inactive) | > 100 µM (inactive) | > 100 µM (inactive) |
| CC(C)c1cc(C(C)C)c(S(=O)(=O)N=[N+]=[N-])c(C(C)C)c1 | 81.8 µM (inactive) | > 100 µM (inactive) | 34.9 µM (inactive) | > 100 µM (inactive) | 87.5 µM (inactive) | > 100 µM (inactive) |  | > 100 | > 100 µM (inactive) | > 100 µM (inactive) | > 100 µM (inactive) | > 100 µM (inactive) | > 100 µM (inactive) | > 100 µM (inactive) | > 100 µM (inactive) |  |  |  |  |  |
| COc1cc(C(=O)C(CO)Oc2ccccc2OC)ccc1O (centres undefined) | > 100 µM (inactive) | > 100 µM (inactive) | > 100 µM (inactive) | > 100 µM (inactive) | 42.1 µM (inactive) | > 100 µM (inactive) | > 100 µM (inactive) | > 100 | > 100 µM (inactive) | > 100 µM (inactive) | > 100 µM (inactive) | > 100 µM (inactive) | > 100 µM (inactive) | > 100 µM (inactive) | > 100 µM (inactive) | > 100 µM (inactive) |  |  |  |  |
| CCOC(=O)NC(C(=O)OCC)(N1CCN(c2cc3c(cc2F)c(=O)c(C(=O)O)cn3CC)CC1)C(F)(F)F (centres undefined) | > 100 µM (inactive) | > 100 µM (inactive) |  | > 100 µM (inactive) | > 100 µM (inactive) | > 100 µM (inactive) | > 100 µM (inactive) | > 100 | > 100 µM (inactive) | > 100 µM (inactive) | > 100 µM (inactive) | > 100 µM (inactive) | > 100 µM (inactive) | > 100 µM (inactive) | > 100 µM (inactive) |  | > 100 µM (inactive) | > 100 µM (inactive) | > 100 µM (inactive) | 26.1 µM (inactive) |
| CC(C)C(NC(=O)OC(C)(C)C)C(=O)N(C)C(Cc1ccccc1)C(=O)N(C)C(C(=O)O)C(C)C (stereo not drawn) (Boc-Val-[NMeF]-[NMeV]-OH; configuration not given here) |  | > 100 µM (inactive) | > 100 µM (inactive) |  | > 100 µM (inactive) | > 100 µM (inactive) | > 100 µM (inactive) | > 100 | > 100 µM (inactive) | > 100 µM (inactive) |  | > 100 µM (inactive) | > 100 µM (inactive) | > 100 µM (inactive) | > 100 µM (inactive) |  |  |  |  |  |
| CC(C)c1cc2c(cc1S(=O)(=O)O)[C@@]1(C)CCC[C@@](C)(C(=O)O)C1CC2 (some centres undefined) | > 100 µM (inactive) | > 100 µM (inactive) |  | > 100 µM (inactive) | > 100 µM (inactive) | > 100 µM (inactive) | > 100 µM (inactive) | > 100 | > 100 µM (inactive) | > 100 µM (inactive) | > 100 µM (inactive) | > 100 µM (inactive) | > 100 µM (inactive) | > 100 µM (inactive) | > 100 µM (inactive) |  | > 100 µM (inactive) | > 100 µM (inactive) | > 100 µM (inactive) | > 100 µM (inactive) |
| CC1=CC(=O)N2C(OC[C@@H]2c2ccccc2)O1 (some centres undefined) | > 100 µM (inactive) | > 100 µM (inactive) | > 100 µM (inactive) | > 100 µM (inactive) | > 100 µM (inactive) |  | > 100 µM (inactive) | > 100 | > 100 µM (inactive) | > 100 µM (inactive) | > 100 µM (inactive) | > 100 µM (inactive) | > 100 µM (inactive) | > 100 µM (inactive) | > 100 µM (inactive) |  |  |  |  |  |
| C/C=C(\C)CC/C=C/CO[Si](C)(C)C(C)(C)C | > 100 µM (inactive) | 69 µM (inactive) |  | > 100 µM (inactive) | > 100 µM (inactive) | > 100 µM (inactive) | 79.1 µM (inactive) | > 100 | 54.7 µM (inactive) | > 100 µM (inactive) | > 100 µM (inactive) | > 100 µM (inactive) | > 100 µM (inactive) | > 100 µM (inactive) | > 100 µM (inactive) |  | > 100 µM (inactive) | > 100 µM (inactive) | > 100 µM (inactive) | > 100 µM (inactive) |

From ChEMBL document CHEMBL1201862, “PubChem BioAssay data set” (2004)
